Measurements taken from patent US20230090094A1, “HEMP EXTRACT FOR TREATMENT OF PAIN, CANCER AND EPILEPSY IN ANIMALS” (ElleVet Sciences, priority 2019, published 2023).
“And” between values parts separate entries of the source, which are not always exact repeats. Equal entries are not always repeated. Marks after values point to notes of the source that are not given here.

Key:
[1] = Single-dose oral pharmacokinetics of CBD oil in beagles; assay type: in vivo, dogs; settings: industrial hemp
Experimental: The dogs were fed two hours after dosing. […] Attitude, behavior, proprioception, and gait were subjectively evaluated at each time point during free running/walking and navigation around standard traffic cones (weaving). […] Blood samples were obtained via jugular venipuncture and transferred to a coagulation tube for 20 minutes. Samples were centrifuged (VWR, Clinical Centrifuge) at 3,600×g for 10 minutes; serum was removed and stored at −80° C. until analysis using liquid chromatography-mass spectrometry (LC-MS) at Colorado State University Core Mass Spectrometry facility.
CBD was extracted from canine serum using a combination of protein precipitation and liquid-liquid extraction using n-hexane, with minor modifications for microflow ultra-high pressure liquid chromatography (UHPLC). Briefly, 0.05 ml of canine serum was subjected to protein precipitation in the presence of ice-cold acetonitrile (80% final concentration), spiked with deuterated CBD as the internal standard (0.06 mg/ml, CDB-d3 Cerilliant, Round Rock, Tex., USA). 0.2 ml of water was added to each sample prior to the addition of 1.0 ml of hexane to enhance liquid-liquid phase separation. Hexane extract was removed and concentrated to dryness under laboratory nitrogen. Prior to LC-MS analysis, samples were resuspended in 0.06 mL of 100% acetonitrile. A standard curve using the CBD analytical standard was prepared in canine serum non-exposed to CBD and extracted as above.
From the UHPLC-QQQ-MS data, peak areas were extracted for CBD detected in biological samples and normalized to the peak area of the internal standard CBD-d3, in each sample using Skyline as well as an in-house R Script (www.r-project.org). […] Pharmacokinetic variables were estimated by means of non-compartmental analysis, utilizing a pharmacokinetic software package (PK Solution, version 2.0, Montrose, Colo., USA).

[2] = Feline serum cannabidiol quantification and pharmacokinetics (LC-MS/MS); assay type: in vivo, cats; settings: for Cannabidiol in serum: individual cats, replicates A/B, ppb = ng/mL, LOD 1.9, LOQ 6.2
Experimental: On the first day of dosing, blood was collected for a PK analysis from 6 of the 8 cats. The most cooperative cats were selected for the PK analysis. […] Samples were placed into a red top clotting tube with no serum separator. […] The harvested serum was placed in cyrovials stored at −70° C. Each tube was labeled with the cat id, date of collection and collection time point. Samples were shipped overnight on dry ice to the Proteomics & Metabolomics Facility at Colorado State University.
Aliquots of feline serum were delivered to the facility on dry ice and stored at −80° C. upon receipt. […] of cold (−20C.) 100% Acetonitrile (spiked with 60 ng/mL of d3-CBD) was added to each sample and vortexed at room temperature for 5 minutes. 200 μL of water was added and vortexed for an additional 5 minutes. 1 ml of 100% hexane was then added to each sample and vortexed for a final 5 minutes. […] The upper hexane layer was transferred to new-labeled glass vials (˜900 uL per sample), carefully avoiding the middle and lower layers.
An 8 point standard curve of CBD was generated in matrix background using a blank serum. Concentrations ranged from 0 ng/mL 1000 ng/mL (3.2X dilution series). 50 uL of each spiked serum sample was extracted as above.
LC-MS/MS was performed on a Waters Acquity M-Class UPLC coupled to a Waters Xevo TQ-S triple quadrupole mass spectrometer. […] Flow rate was 3.0 μL/min and injection volume was 2.0 μL. Samples were held at 6° C. in the autosampler, and the column was operated at 70° C. The MS was operated in selected reaction monitoring (SRM) mode, where a parent ion is selected by the first quadrupole, fragmented in the collision cell, then a fragment ion selected for by the third quadrupole. Product ions, collision energies, and cone voltages were optimized for each analyte by direct injection of individual synthetic standards. Inter-channel delay was set to 3 ms. The MS was operated in positive ionization mode with the capillary voltage set to 3.6 kV. […] Desolvation gas flow was […], cone gas flow was 150 L/hr, and collision gas flow was 0.2 mL/min. Nebulizer pressure (nitrogen) was set to 7 Bar. Argon was used as the collision gas.
Each target analyte was visually inspected for retention time and peak area integration. Peak areas were extracted for target compounds detected in biological samples and normalized to the peak area of the appropriate internal standard in each sample using in-house R Script (TQS-tools). CBD concentrations were calculated in nanograms per milliliter of extract (0.06 mL) and then back calculated to nanograms per mL of serum (0.05 mL of serum).
LOD are calculated based on the standard deviation of the response (Sy) of the 0 point calibration standard (i.e. 0 ng/mL CBD as an estimate on noise) and the slope of the calibration curve (S) at levels approximating the LOD according to the formula: LOD=3*(Sy/S). LOQ=10*(Sy/S).

For `C=C(C)[C@@H]1CCC(C)=C[C@H]1c1c(O)cc(CCCCC)cc1O` [cannabidiol], the Average retention time ([1]; dosing at 2 mg/kg) was 6 h, the Peak concentration ([1]; dosing at 2 mg/kg, average 20 mg total dose) was “approximately 100 ug/kg” and the Total absorption ([1]; oral dosing at 2 mg/kg) was “less than 20%”. The Cannabidiol in serum ([2]; 60 min after CBD oil 2 mg/kg oral) was 24.44 ppb and 26.32 ppb and 44.14 ppb and 45.40 ppb and 28.10 ppb and 31.02 ppb and 378.59 ppb and 535.08 ppb and 32.85 ppb and 34.26 ppb, the Cannabidiol in serum ([2]; 4 hr after CBD oil 2 mg/kg oral) was 1.69** ppb and 1.82** ppb and 1.53** ppb and 51.48 ppb and 68.31 ppb and the Cannabidiol in serum ([2]; 8 hr after CBD oil 2 mg/kg oral) was 65.42 ppb and 79.30 ppb and 1.82** ppb and 2.22* ppb and 44.23 ppb and 46.05 ppb and 365.18 ppb and 376.28 ppb and 71.64 ppb and 79.59 ppb. For the same molecule, the Cannabidiol in serum ([2]; 24 hr after CBD oil 2 mg/kg oral) was 42.76 ppb and 44.88 ppb and 141.92 ppb and 147.74 ppb and 10.28 ppb and 10.31 ppb and 13.95 ppb and 17.17 ppb and 0.18** ppb and 0.36** ppb and 33.12 ppb and 35.88 ppb and the AUC(0-t) ([2]; serum, po, 2 mg/kg) was 154 ng·h/mL.
